“Also recorded” adds a separate entry of the source. Read-outs that look alike come from different tables or passages of the source. No end group written: not given here.
Tested on: NSC-34 cells
Test: LDH assay (cytotoxicity) in NSC-34 cells
Assay type: cell-based
Settings: for DRP-induced toxicity: incubated 24 hours; for toxicity: DRP concentrations as low as 300 nM
Description: LDH Assay: The LDH assay is a colorimetric assay that measures cell toxicity and death. […] When cells lose membrane integrity, an enzyme found in living cells called lactate dehydrogenase (LDH) is released into the solution surrounding the dying cell. A form of programmed cell death, apoptosis, as well as other forms of cell death also ultimately lead to a cell's membrane being destroyed, resulting in a large release of LDH into the extracellular space. Thus, LDH is an excellent marker not only for necrosis, but for all instances of cell death. In an LDH assay, a sample of the solution surrounding the cell is isolated, and transferred to a plate containing an LDH reaction mixture. This reaction mixture contains a tetrazolium salt intermediate and other reaction constituents that, when exposed to LDH, convert the tetrazolium salt into a colored Formazan product. This Formazan product can be quantified spectrophotometrically. Greater absorbance readings correspond to more cell death.
One row on the top and bottom of the plate, and two columns on either side of the plate, were left without cells and contained culture medium only to minimize experimental well volume evaporation. After plating, cells were incubated for 24 h at 37° C., 5% CO2 prior to DRP and/or PRMT inhibitor addition. At time of DRP/PRMT inhibitor addition, desired doses of DRP for challenge and inhibitor for treatment were achieved by diluting aliquots of each stock in warm culture medium. During experiments where both PRMT inhibitors and DRPs were used, PRMT inhibitors were always applied to wells first, and followed by DRP application. […] Inhibitor toxicity controls were included as wells treated with the desired doses of drug for the experiment, but no DRP. DRP toxicity controls were included as wells only treated with the doses of DRP used for challenge. Once dosed, plates were incubated for 24 h at 37° C., 5% CO2 prior to running the WST-1 or LDH assay endpoints. Additional controls needed for each endpoint are specified in the “WST-1 Assay” and “LDH Assay” sections of these methods.
LDH Assay: Cells were plated and prepared using the steps described in the “Plating NSC-34 and Dosing with DRPs and PRMT Inhibitors” section of these methods. Other controls for this experiment included several sets of wells with only cells in culture medium (one triplicate designated for “untreated,” one triplicate designated for “lysed” positive control), and wells with culture medium only. An additional control added only to the transfer plate at time of testing was 5 μL LDH only. Testing was performed using colorimetric LDH-Cytotoxicity Assay Kit II (Abcam, Cambridge, MA, USA) per manufacturer's instructions. Final read at 450 nm was performed on a SpectraMax M3 Microplate Reader (Molecular Devices, San Jose, CA, USA). Data analysis included calculation of % LDH release using the following equation: […]
Experiments included three replicates per condition. Each experiment was repeated twice (executed three times total).
(§1) The following conditions were plated in triplicate.
Plates were incubated for 24 h at 37° C., 5% CO2. Cells were tested and data were analyzed by LDH assay.
Cells were plated in culture medium in 2 96-well plates at a density of 3.7×10^4 cells per well, and incubated overnight at 37° C., 5% CO2.
as §1
Cells were plated in culture medium in 2 96-well plates at a density of 3.7×10^4 cells per well, and incubated overnight at 37° C., 5% CO2. […]
The following conditions were plated in triplicate. […]

Molecule	effect on GR15-induced cytotoxicity (300 nM GR15, 24 h, MS023 60 and 30 μM)	abrogation of PR-induced cytotoxicity (300 nM PR15, 24 h, all doses applied (1-60 μM))	abrogation of ADMe-GR15-induced cytotoxicity (3 μM ADMe-GR15, 24 h, MS023 0.1-10 μM)	abrogation of GR-induced toxicity (3 μM GR15, 24 h, all tested doses (1-60 μM))	dose dependence of abrogation of GR15-induced cytotoxicity (3 μM GR15, 24 h, dose range of the example)	abrogation of GR-induced toxicity (3 μM GR15, 24 h, doses 0.01, 0.03, 0.1 and 0.3 μM)	abrogation of GR-induced toxicity (3 μM GR15, 24 h, doses 0.3, 1 and 3 μM)	abrogation of GR15-induced cytotoxicity (3 μM GR15, 24 h, doses 1 and 3 μM)	relative potency against GR- vs PR-induced toxicity (3 μM GR15 or PR15, 24 h, MS023 0.01-3 μM)	dose dependence of abrogation of PR15-induced cytotoxicity (3 μM PR15, 24 h, dose range of the example)	abrogation of PR-induced toxicity (3 μM PR15, 24 h, doses 0.01, 0.03 and 0.1 μM)	abrogation of PR-induced toxicity (3 μM PR15, 24 h, doses 0.03, 0.1, 0.3, 1 and 3 μM)	abrogation of PR-induced cytotoxicity (3 μM PR15, 24 h, doses 1 and 3 μM)	abrogation of PR-induced cytotoxicity (3 μM PR15, 24 h, doses 10, 30 and 60 μM)	cytotoxicity of inhibitor alone (no DRP, highest dose 60 μM)	EC50 (24 h)	DRP-induced toxicity (DRP 0.01-3 μM)	toxicity (24 h)	cytotoxicity induced by DRP challenge (DRP 10 nM-3 μM, 24 h)	EC50 (DRP 0.01-3 μM, 24 h, read-out: EC50 of DRP-induced toxicity)
CC(C)Oc1ccc(-c2c[nH]cc2CN(C)CCN)cc1 [MS023]	significantly amplified cytotoxicity	at least partially abrogated	did not abrogate	partially abrogated	potently, and dose-dependently abrogated; also recorded: consistently dose-dependently abrogated	partially abrogated	completely abrogated	completely abrogated	more potently abrogated PR-induced toxicity	potently, and dose-dependently abrogated	partially abrogated	completely abrogated	fully abrogated; also recorded: completely abrogated	partially abrogated	did produce significant cytotoxicity	–	–	–	–	–
PRPRPRPRPRPRPRPRPRPRPRPRPRPRPR [PR15]	–	–	–	–	–	–	–	–	–	–	–	–	–	–	–	56 ± 20 nM	produced significant, dose-dependent toxicity	approximately 10%	–	–
GRGRGRGRGRGRGRGRGRGRGRGRGRGRGR [GR15]	–	–	–	–	–	–	–	–	–	–	–	–	–	–	–	–	produced significant, dose-dependent toxicity	approximately 10%	induced dose-dependent cytotoxicity	50 ± 26 nM

Source: patent US12318365B2, “Inhibition of dipeptide repeat proteins” (ALS Therapy Development Institute, priority 2019, dated 2025)
